Experimental data: PMC9358932 (Chemical Science, 2022)
Like-named read-outs stand apart in the source and are kept apart here.

What was measured:
[1] = tested on: Cp149 dimer; assay: Solution-state NMR chemical shift perturbations; format: binding, Hepatitis B virus (HBV); settings: 4 molar equivalents of compound
[2] = target: T1, Cp149 reassembled capsids (Hepatitis B virus genotype D subtype ayw, UniProt P03146); assay: biochemical; format: binding, Hepatitis B virus (HBV); settings: ITC, 50 mM HEPES pH 7.5, 298 K
T1 sequence (P03146 1-149): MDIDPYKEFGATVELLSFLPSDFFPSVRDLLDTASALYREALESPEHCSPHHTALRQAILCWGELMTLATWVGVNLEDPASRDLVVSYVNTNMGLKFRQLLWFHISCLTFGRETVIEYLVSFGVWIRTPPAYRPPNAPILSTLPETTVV

[3] = tested on: many organisms; settings: cited from earlier work
[4] = target: T1, Cp149 reassembled capsids; settings: ITC, TX100 value taken from previous data; cited from earlier work

4-hexylaniline [Compound 2e]
CSPs / pocket binding in words [1]: smallest CSPs

4’-heptylacetophenone [Compound 2d]
CSPs / pocket binding in words [1]: rather small CSPs

CCCCCCc1ccc(O)cc1 [Compound 2a, 4-hexylphenol]
ΔH [2]: -6.0 ± 0.6 kcal/mol | Kd [2]: 13 ± 3 µM

CCC(C)(C)c1ccc(O)cc1 [Compound 4c, 4-tert-amylphenol]
ΔH [2]: -12.7 ± 1.2 kcal/mol | Kd [2]: 30 ± 4 µM

CC(C)c1ccc(O)cc1 [Compound 4a, 4-isopropylphenol]
ΔH [2]: -5 ± 3 kcal/mol | Kd [2]: 18 ± 7 µM

CC(C)(C)CC(C)(C)c1ccc(O)cc1 [Compound 1c, 4-tert-octylphenol]
toxicity / environmental pollutant [3]: toxic to many organisms | ΔH [2]: -4.79 ± 0.14 kcal/mol | Kd [2]: 7.5 ± 0.5 µM | CSPs / pocket binding in words [1]: as high as those derived for TX100

Reduced Triton X-100 [Compound 1b]
CSPs / pocket binding in words [1]: very small CSPs

CCCc1ccc(O)cc1 [Compound 4b, 4-propylphenol]
ΔH [2]: -7 ± 4 kcal/mol | Kd [2]: 14 ± 7 µM

NP40 [Compound 6g]
ΔH [2]: -3.41 ± 0.09 kcal/mol

Triton X-100 [Compound 1a]
Kd [4]: 8.3 ± 0.5 µM | ΔH [4]: -4.59 ± 0.05 kcal/mol
